Results taken from the supplement of paper PMC9663587.

Legend:
[1] = compound: CC(=O)Nc1cccc(-n2c(=O)n(C3CC3)c(=O)c3c(Nc4ccc(I)cc4F)n(C)c(=O)c(C)c32)c1
[2] = compound: COc1cccc2c1C(=O)c1c(O)c3c(c(O)c1C2=O)C[C@@](O)(C(=O)CO)C[C@@H]3O[C@H]1C[C@H](N)[C@H](O)[C@H](C)O1 [Doxorubicin]
[3] = compound: Cc1cc(Nc2ncc(Cl)c(Nc3ccccc3S(=O)(=O)C(C)C)n2)c(OC(C)C)cc1C1CCNCC1 [Ceritinib/LDK378]
[4] = compound: CC[C@@H]1C(=O)N(C)c2cnc(Nc3ccc(C(=O)N[C@H]4CC[C@H](N5CCN(CC6CC6)CC5)CC4)cc3OC)nc2N1C(C)C [Volasertib/BI6727]
[5] = compound: T1, CN(C)C/C=C/C(=O)Nc1ccc(C(=O)N2CCC[C@@H](Nc3ncc(Cl)c(-c4c[nH]c5ccccc45)n3)C2)cc1 [THZ531]
[6] = compound: T2, CC(=O)c1c(C)c2cnc(Nc3ccc(N4CCN(CCOCCOCCOCCNC(=O)COc5cccc6c5C(=O)N(C5CCC(=O)NC5=O)C6=O)CC4)cn3)nc2n(C2CCCC2)c1=O [BSJ-03-123]
[7] = compound: T3, CCOc1cc2ncc(C#N)c(Nc3ccc(OCc4ccccn4)c(Cl)c3)c2cc1NC(=O)/C=C/CN(C)C [Neratinib/HKI272]
[8] = compound: CO[C@@H](C)Cn1c(=O)n(C)c2cnc3ccc(-c4cncc(C(C)(C)O)c4)cc3c21
[9] = compound: O=C(CCCCCCC(=O)Nc1ccccc1)NO [Vorinostat]
[10] = compound: CNC(=O)c1cccc(-c2ccc3c(N4CCOC[C@@H]4C)nc(N4CCOC[C@@H]4C)nc3n2)c1 [AZD2014]
[11] = compound: CC(=O)c1c(C)c2cnc(Nc3ccc(N4CCNCC4)cn3)nc2n(C2CCCC2)c1=O
[12] = compound: Cc1nc(-c2cn3c(n2)-c2ccc(-c4cnn(C(C)(C)C(N)=O)c4)cc2OCC3)n(C(C)C)n1 [Taselisib/GDC0032]
[13] = compound: CC(C)n1nc(-c2ccc3oc(N)nc3c2)c2c(N)ncnc21 [INK128/MLN0128]
[14] = compound: CN(C)C/C=C/C(=O)Nc1ccc(O[C@@H]2CCC[C@@H](Nc3ncc(Cl)c(-c4c[nH]c5ccccc45)n3)C2)cc1 [BSJ-01-175]
[15] = compound: CNCc1ccc(-c2[nH]c3cc(F)cc4c3c2CCNC4=O)cc1 [Rucaparib]
[16] = compound: Cc1nc(Nc2ncc(C(=O)Nc3c(C)cccc3Cl)s2)cc(N2CCN(CCO)CC2)n1 [Dasatinib]
[17] = compound: CN(C)C/C=C/C(=O)Nc1ccc(C(=O)Nc2cccc(Nc3ncc(Cl)c(-c4c[nH]c5ccccc45)n3)c2)cc1 [THZ1]; assay: increase in dead-cell fraction, 72 h; higher = more death;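 note: breast cancer cell lines in 384-well plates, stained with Hoechst plus LIVE/DEAD far red dye and imaged, cells above an LDR intensity threshold counted dead, Hoechst-negative corpses included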
[18] = compound: T1, THZ531; assay: as above
[19] = compound: T2, BSJ-03-123; assay: as above
[20] = compound: T3, Neratinib/HKI272; assay: as above
[21] = compound: C=CC(=O)Nc1ccc(C(=O)Nc2[nH]nc3c2CN(C(=O)N[C@H](CN(C)C)c2ccccc2)C3(C)C)cc1 [YKL-5-124]; assay: as above
[22] = compound: CCc1cnn2c(NCc3ccc[n+]([O-])c3)cc(N3CCCC[C@H]3CCO)nc12; assay: as above
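Throughout, for GR50, 72 h: breast cancer and non-malignant breast epithelial cell lines, Deep Dye Drop or Dye Drop imaging, nine half-log doses, GR normalized to time-zero plates and DMSO-only controls.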

## UACC812
[1]
  GR50, 72 h: 0.00179 µM
[2]
  GR50, 72 h: 0.00203 µM
[3]
  GR50, 72 h: 3.48 µM
[4]
  GR50, 72 h: 0.00975 µM
[5]
  GR50, 72 h: > 1 µM
[6]
  GR50, 72 h: 0.836 µM
[7]
  GR50, 72 h: 0.00313 µM
[8]
  GR50, 72 h: < 0.001 µM
[9]
  GR50, 72 h: 1.12 µM
[10]
  GR50, 72 h: < 0.001 µM
[11]
  GR50, 72 h: 0.0179 µM
[12]
  GR50, 72 h: 0.0622 µM
[13]
  GR50, 72 h: 0.0021 µM
[14]
  GR50, 72 h: 0.332 µM
[15]
  GR50, 72 h: > 10 µM
[16]
  GR50, 72 h: 0.00102 µM
[17]; 0.0001 µM
  increase in dead-cell fraction: -0.003
[17]; 0.0003162 µM
  increase in dead-cell fraction: 0.0027
[17]; 0.001 µM
  increase in dead-cell fraction: -0.0004
[17]; 0.003162 µM
  increase in dead-cell fraction: 0.0019
[17]; 0.01 µM
  increase in dead-cell fraction: 0.0019
[17]; 0.03162 µM
  increase in dead-cell fraction: -0.0013
[17]; 0.1 µM
  increase in dead-cell fraction: -0.0018
[17]; 0.3162 µM
  increase in dead-cell fraction: 0.0001
[17]; 1 µM
  increase in dead-cell fraction: 0.0639
[18]; 0.0001 µM
  increase in dead-cell fraction: 0.0045
[18]; 0.0003162 µM
  increase in dead-cell fraction: 0.0009
[18]; 0.001 µM
  increase in dead-cell fraction: 0.0012
[18]; 0.003162 µM
  increase in dead-cell fraction: -0.0009
[18]; 0.01 µM
  increase in dead-cell fraction: 0.0008
[18]; 0.03162 µM
  increase in dead-cell fraction: -0.0001
[18]; 0.1 µM
  increase in dead-cell fraction: -0.0004
[18]; 0.3162 µM
  increase in dead-cell fraction: 0.0004
[18]; 1 µM
  increase in dead-cell fraction: 0.0127
[19]; 0.001 µM
  increase in dead-cell fraction: 0.0002
[19]; 0.003162 µM
  increase in dead-cell fraction: 0.0007
[19]; 0.01 µM
  increase in dead-cell fraction: 0.0021
[19]; 0.03162 µM
  increase in dead-cell fraction: 0.0004
[19]; 0.1 µM
  increase in dead-cell fraction: 0.0012
[19]; 0.3162 µM
  increase in dead-cell fraction: -0.0006
[19]; 1 µM
  increase in dead-cell fraction: -0.0002
[19]; 3.162 µM
  increase in dead-cell fraction: 0.0096
[19]; 10 µM
  increase in dead-cell fraction: 0.0406
[20]; 0.0003162 µM
  increase in dead-cell fraction: -0.0016
[20]; 0.001 µM
  increase in dead-cell fraction: 0.0009
[20]; 0.003162 µM
  increase in dead-cell fraction: 0.0017
[20]; 0.01 µM
  increase in dead-cell fraction: 0.0044
[20]; 0.03162 µM
  increase in dead-cell fraction: 0.0198
[20]; 0.1 µM
  increase in dead-cell fraction: 0.0311
[20]; 0.3162 µM
  increase in dead-cell fraction: 0.0666
[20]; 1 µM
  increase in dead-cell fraction: 0.0547
[20]; 3.162 µM
  increase in dead-cell fraction: 0.114
[21]; 0.001 µM
  increase in dead-cell fraction: 0.0021
[21]; 0.003162 µM
  increase in dead-cell fraction: 0.0107
[21]; 0.01 µM
  increase in dead-cell fraction: 0.0182
[21]; 0.03162 µM
  increase in dead-cell fraction: 0.0223
[21]; 0.1 µM
  increase in dead-cell fraction: 0.0246
[21]; 0.3162 µM
  increase in dead-cell fraction: 0.0283
[21]; 1 µM
  increase in dead-cell fraction: 0.0151
[21]; 3.162 µM
  increase in dead-cell fraction: 0.027
[21]; 10 µM
  increase in dead-cell fraction: 0.0485
[22]; 0.0001 µM
  increase in dead-cell fraction: -0.0048
[22]; 0.0003162 µM
  increase in dead-cell fraction: -0.0023
[22]; 0.001 µM
  increase in dead-cell fraction: -0.0065
[22]; 0.003162 µM
  increase in dead-cell fraction: -0.0073
[22]; 0.01 µM
  increase in dead-cell fraction: -0.007
[22]; 0.03162 µM
  increase in dead-cell fraction: 0.0324
[22]; 0.1 µM
  increase in dead-cell fraction: 0.478
[22]; 0.3162 µM
  increase in dead-cell fraction: 0.529
[22]; 1 µM
  increase in dead-cell fraction: 0.523
